pEC50: −log10 of the molar value.
Test system: HT-29 cells
Assay: HT-29 cell necrosis/necroptosis inhibition (TNF-α + SMAC mimetic + zVAD-FMK; CellTiter-Glo cell viability)
Type: cell-based
Conditions: Homo sapiens; HT-29 cells, TNF-α 10 ng/ml + SMAC mimetic 6 μM + zVAD-FMK 10 μM, 20 hours; geometric mean, 10 points in duplicate; read-out: EC50 (Cell activity; Necrosis/Necroptosis Inhibitory Activity, Compounds 1-142)
Procedure: Compounds 1-319 (denoted as Compound Nos. 1 through 319 in Table 3 and 4) of the disclosure were tested for binding and cellular RIP1 inhibitory activity following the experimental procedures described below.
• Cell line: HT-29 (ATCC® HTB-38™) • Culture medium: McCOY's 5A, Gibco, Cat No. 16600-082 • FBS, Gibco, Cat No. 10099-141C • Trypsin: Gibco, Cat No. 25200-056 • DMSO: Sigma, Cat No. 67-68-5, 1L • Assay plate: Corning #3903 • Compound dilution plate: Corning #3357 • Inducers: TNFα, GenScript, Cat No. Z01001-50, • SmacM, Cat. No., HY-15989, MedChemExpress (MCE) • Z_VAD FMK, TargetMol, T6013 • Cell Titer-Glo® Luminescent Cell Viability Assay Kit: Promega, Cat No. G7573 • EnVision: PerkinElmer, 2105-0010 Methods Cell Seeding
1. HT-29 cells were checked every day to make sure that they were healthy and growing as expected. They were subjected to sub-culturing when they were approximately 80% confluent.
2. The culture medium, McCOY's 5A medium (Gibco, Cat No. 16600-082) with 10% fetal bovine serum or FBS (Gibco, Cat No. 10099-141C), was pre-warmed in a 37° C. water bath for at least 30 min.
3. When the cells had reached a desired level of confluency of 80% in a T75 flask, the medium was aspirated, and the cells were washed with warm phosphate buffered saline or PBS two times.
4. 2-3 ml fresh warm trypsin (Gibco, Cat No. 25200-056) solution was added to the washed cells. The flask with the cells was transferred to a 37° C. incubator.
5. After 5 minutes, the side of the flask was tapped, and the flask was examined under a microscope for detachment of the cells to the flask. If necessary, the cells were kept in the incubator for an additional 5-10 minutes, with occasional tapping, until lifting was complete.
6. The trypsin reaction was neutralized by transferring 6-9 ml cell culture medium to sterile 15 ml conical tubes, and by centrifuging the cell culture at 300×g for 7 minutes to pellet the cells (supernatant decanted).
7. The cells were resuspended in fresh cell culture medium and the cell counting was performed using a hemocytometer.
8. 100 μl of the resuspended cell culture medium containing ˜5,000 cells were transferred into each well of the sterile 96-well cell culture plate (Corning 3903) and cultured overnight at 37° C. with 5% CO2.
Compound Titration and Treatment
1. All test compounds were dissolved in DMSO (Dimethyl sulfoxide) to create a 20 mM stock.
2. 3 μl of each compound 20 mM stock was mixed with 27 μl DMSO, and the compound solution was further diluted at a titration ratio of 1:3 (20 μl compound solution+40 μl DMSO) till the 10 points end.
3. All culture medium was removed from assay plates filled with HT-29 cell cultures. The cells were then washed with 1 PBS, and resuspended in fresh, FBS-free McCOY's 5A medium containing a cocktail of TNF-α (10 ng/ml), a SMAC mimetic compound (6 μM) and Z-VAD-fluoromethylketone or zVAD-FMK (10 μM) to stimulate the HT-29 cells to increase RIP1 kinase levels and necroptosis.
4. 0.5 μL of the diluted compound solution was added to the corresponding 96-well assay plates.
5. The assay plates were incubated for 20 hours at 37° C. with 5% CO2.
1. The CellTiter-Glo® Luminescent Cell Viability Assay was employed to detect the ATP levels of viable HT-29 cells.
2. The CellTiter-Glo® buffer and the lyophilized substrate were equilibrated to room temperature prior to use.
3. The CellTiter-Glo® substrate was resuspended with CellTiter-Glo® buffer, then mixed by gently vortexing to obtain a homogeneous solution.
4. 20 μl the enzyme/substrate mixture was transferred by multi-channel pipetting into 96-well assay plates.
5. The assay plates were placed on an orbital shaker and the contents were shaken for 3 minutes to induce cell lysis.
6. The assay plates were incubated at room temperature for 10 minutes to stabilize the luminescent signal.
7. The luminescence signals were read and recorded with EnVision.
8. The geometric mean EC50 values were calculated from 10 points response dose with duplicates. In

`Cc1c(-c2nc(N3CCN(C(=O)N4N=CC[C@H]4c4cc(F)cc(C#N)c4)CC3)ncc2F)nnn1CC(N)=O` [Compound 79, (S)-2-(4-(2-(4-(5-(3-cyano-5-fluorophenyl)-4,5-dihydro-1H-pyrazole-1-carbonyl)piperazin-1-yl)-5-fluoropyrimidin-4-yl)-5-methyl-1H-1,2,3-triazol-1-yl)acetamide] and `O=C(N1CCN(c2nccc(C3=NCCN3)n2)CC1)N1N=CC[C@H]1c1cc(F)cc(F)c1` [Compound 3, (S)-(5-(3,5-difluorophenyl)-4,5-dihydro-1H-pyrazol-1-yl)(4-(4-(4,5-dihydro-1H-imidazol-2-yl)pyrimidin-2-yl)piperazin-1-yl)methanone] fall in the same range of pEC50: 7.00 to 10.00 for the first, 7.00 to 10.00 for the second.

Same assay, conditions: Homo sapiens; HT-29 cells, TNF-α 10 ng/ml + SMAC mimetic 6 μM + zVAD-FMK 10 μM, 20 hours; geometric mean, 10 points in duplicate; read-out: EC50 (Cell activity; Necrosis/Necroptosis Inhibitory Activity, Compounds 143-323)

`Cc1csc(C2CC=NN2C(=O)N2CCN(c3nc(-c4c(C)cnn4C)ccc3F)CC2)n1` (centres unmarked) [Compound 299, (4-(6-(1,4-dimethyl-1H-pyrazol-5-yl)-3-fluoropyridin-2-yl)piperazinyl)(5-(4-methylthiazol-2-yl)-4,5-dihydro-1H-pyrazol-1-yl)methanone] and `Cc1csc(C2CC=NN2C(=O)N2CCN(c3ncc(F)c(-n4nc(C)nc4C)n3)CC2)n1` (centres unmarked) [Compound 215] fall in the same range of pEC50: 7.00 to 10.00 for the first, 7.00 to 10.00 for the second.

Compared with `Cc1ncn(-c2nc(N3CCN(C(=O)N4N=CC[C@H]4c4ccccc4)CC3)ncc2F)n1` [Compound 309, (S)-(4-(5-fluoro-4-(3-methyl-1H-1,2,4-triazol-1-yl)pyrimidin-2-yl)piperazin-1-yl)(5-phenyl-4,5-dihydro-1H-pyrazol-1-yl)methanone], `Cc1nc(C)n(-c2nc(N3CCN(C(=O)N4N=CCC4c4cscn4)CC3)ncc2F)n1` (centres unmarked) [Compound 212, (4-(4-(3,5-dimethyl-1H-1,2,4-triazol-1-yl)-5-fluoropyrimidin-2-yl)piperazin-1-yl)(5-(thiazol-4-yl)-4,5-dihydro-1H-pyrazol-1-yl)methanone] is lower in pEC50: 7.00 to 10.00 for the first, 6.00 to 7.00 for the second.

`Cc1nc(C)n(-c2nc(N3CCN(C(=O)N4N=CC[C@H]4c4cncc(F)c4)CC3)c(F)cc2F)n1` [Compound 234, (S)-(4-(6-(3,5-dimethyl-1H-1,2,4-triazol-1-yl)-3,5-difluoropyridin-2-yl)piperazin-1-yl)(5-(5-fluoropyridin-3-yl)-4,5-dihydro-1H-pyrazol-1-yl)methanone] and `Cc1nc(C)n(-c2nc(N3CCN(C(=O)N4N=CC[C@@H]4c4ncc(C)s4)CC3)ncc2F)n1` [Compound 242, (R)-(4-(4-(3,5-dimethyl-1H-1,2,4-triazol-1-yl)-5-fluoropyrimidinyl)piperazin-1-yl)(5-(5-methylthiazol-2-yl)-4,5-dihydro-1H-pyrazol-1-yl)methanone] fall in the same range of pEC50: 7.00 to 10.00 for the first, 7.00 to 10.00 for the second.

`Cn1nc(CO)nc1-c1ccnc(N2CCN(C(=O)N3N=CC[C@H]3c3cc(F)cc(C#N)c3)CC2)n1` [Compound 171, (S)-3-fluoro-5-(1-(4-(4-(3-(hydroxymethyl)-1-methyl-1H-1,2,4-triazol-5-yl)pyrimidin-2-yl)piperazine-1-carbonyl)-4,5-dihydro-1H-pyrazol-5-yl)benzonitrile] and `Cc1cnn(C)c1-c1sc(N2CCN(C(=O)N3N=CC[C@H]3c3cc(F)cc(F)c3)CC2)nc1Cl` [Compound 185, (S)-(4-(4-chloro-5-(1,4-dimethyl-1H-pyrazol-5-yl)thiazol-2-yl)piperazin-1-yl)(5-(3,5-difluorophenyl)-4,5-dihydro-1H-pyrazol-1-yl)methanone] fall in the same range of pEC50: 7.00 to 10.00 for the first, 7.00 to 10.00 for the second.

Compound `Cc1nc(C)n(-c2nc(N3CCN(C(=O)N4N=CC[C@H]4c4ncc(C)s4)CC3)ncc2F)n1` [Compound 241, (S)-(4-(4-(3,5-dimethyl-1H-1,2,4-triazol-1-yl)-5-fluoropyrimidin-2-yl)piperazin-1-yl)(5-(5-methylthiazol-2-yl)-4,5-dihydro-1H-pyrazol-1-yl)methanone] has a pEC50 of 7.00 to 10.00.

— US12454529B2, “Piperazine cyclic ureas” (SIRONAX LTD., priority 2020, dated 2025)
